Data from patent US20070161546A1, “Methods and compositions for treatment of cancer” (priority 2005, published 2007).

Tests used:
[1] = test system: human monocyte-derived macrophages (MDMs); conditions: p38 MAPK inhibitor added to Z-100; cited from earlier work
[2] = test system: Ehrlich ascites tumor cell; conditions: mice, 14 days after inoculation with cancer cells
Excerpt: The injection is repeated over a period of several days. Fourteen days later after the initial inoculation with cancer cells, each of the treated mice are anesthetized.
The solid tumor growing in the abdominal section is carefully isolated from other organ tissues, cleaned using filter papers and weighed. For the test and the control group, the average weight of the cancerous tissue was tabulated and evaluated by the t-test.

Row | Structure (SMILES) | effect on Z-100-induced effects (repression of HIV-1 replication) [1] | anticancer effect (average weight of the cancerous tissue), agent alone [2]
1 | C[S+]([O-])c1ccc(-c2nc(-c3ccncc3)c(-c3ccc(F)cc3)[nH]2)cc1 (centres unmarked) [SB 203580] | alleviated | 
2 | O=P1(N(CCCl)CCCl)NCCCO1 (centres unmarked) [cyclophosphamide, Cyclophosphamide] |  | anticancer effects of similar magnitude
